The text below walks through data of patent publication US20170334899A1, “AMINO-SUBSTITUTED ISOTHIAZOLES” (Bayer Pharma Aktiengesellschaft, priority 2014, published 2017).

What all share (assay type): cell-based
One assay concerns HeLa-MaTu-ADR. Nature of the assay: Proliferation assay (crystal violet), HeLa-MaTu-ADR. The settings on record: 96 h; HeLa-MaTu-ADR cells; 4 days incubation; crystal violet staining; read-out: IC50 inhibition of proliferation, HeLa-MaTu-ADR. In a few lines:
(§1)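 Crystal violet proliferation readout, 4-day compound incubation, 0.001–10 μM, final DMSO 0.5%. Zero-point plate stained at time of dosing set as 0%, untreated control as 100%; IC50 via 4-parameter fit.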

Another assay concerns B16F10. Nature of the assay: Proliferation assay (crystal violet), B16F10. The following applies: Mus musculus, B16-F10, 96 h; B16F10 cells; 4 days incubation; crystal violet staining; read-out: IC50 inhibition of proliferation, B16F10. In a few lines:
as §1

The next assay concerns DU145. The assay is described as follows: Proliferation assay (crystal violet), DU145. The following applies: Homo sapiens, DU-145, 96 h; DU145 cells; 4 days incubation; crystal violet staining; read-out: IC50 inhibition of proliferation, DU145. In a few lines: as §1
The next assay concerns NCI-H460. The assay is described as follows: Proliferation assay (crystal violet), NCI-H460. The settings on record: Homo sapiens, 96 h; NCI-H460 cells; 4 days incubation; crystal violet staining; read-out: IC50 inhibition of proliferation, NCI-H460. A digest of the protocol: as §1
In another assay the test system is Caco-2. Nature of the assay: Proliferation assay (crystal violet), Caco-2. The following applies: Homo sapiens, 96 h; Caco-2 cells; 4 days incubation; crystal violet staining; read-out: IC50 inhibition of proliferation, Caco2. A digest of the protocol: as §1

In the case of `COCCOc1ccc(NC(=O)c2c(C)nsc2Nc2nc3c(C(F)(F)F)cccc3s2)cc1F` [Example 1, N-[3-Fluoro-4-(2-methoxyethoxy)phenyl]-3-methyl-5-{[4-(trifluoromethyl)-1,3-benzothiazol-2-yl]amino}-1,2-thiazole-4-carboxamide], the IC50 with HeLa-MaTu-ADR turned out to be 370 nM; in the assay with B16F10 it was 410 nM; in the assay with DU145, 440 nM; with NCI-H460, 240 nM; in the assay with Caco-2 it was 260 nM.

`Cc1nsc(Nc2cnc(C(F)(F)F)cn2)c1C(=O)Nc1ccc(OC2CCN(C(=O)OC(C)(C)C)CC2)nc1` [Example 5, tert-Butyl 4-[(5-{[(3-methyl-5-{[5-(trifluoromethyl)pyrazin-2-yl]amino}-1,2-thiazol-4-yl)carbonyl]amino}pyridin-2-yl)oxy]piperidine-1-carboxylate]: the IC50 in the assay with HeLa-MaTu-ADR came out at 370 nM; with B16F10, 350 nM; in the assay with DU145 it was 520 nM; in the assay with NCI-H460, 250 nM; in the assay on Caco-2, 350 nM.

With `Cc1nsc(Nc2ccc(C#N)cn2)c1C(=O)Nc1ccc(OC2CCCN(C(=O)OC(C)(C)C)C2)nc1` (stereo not drawn) [Example 36, tert-Butyl 3-({5-[({5-[(5-cyanopyridin-2-yl)amino]-3-methyl-1,2-thiazol-4-yl}-carbonyl)amino]pyridin-2-yl}oxy)piperidine-1-carboxylate], the IC50 with HeLa-MaTu-ADR was 330 nM; with B16F10 it was 550 nM; in the assay with DU145, 860 nM; with NCI-H460, 400 nM; in the assay with Caco-2, 330 nM.

As for `Cc1nsc(Nc2ccc(C#N)cn2)c1C(=O)Nc1ccc(OC2CCCN(CC(F)F)C2)nc1` (stereo not drawn) [Example 39, 5-[(5-Cyanopyridin-2-yl)amino]-N-(6-{[1-(2,2-difluoroethyl)piperidin-3-yl]oxy}-pyridin-3-yl)-3-methyl-1,2-thiazole-4-carboxamide], the IC50 with HeLa-MaTu-ADR was 810 nM; in the assay on B16F10 it was 2200 nM; in the assay with DU145, 2000 nM; in the assay with NCI-H460, 990 nM; in the assay on Caco-2 it was 1500 nM.

Turning to `Cc1nsc(Nc2ccc(C#N)cn2)c1C(=O)Nc1ccc(OC2CCCN(CC(F)(F)F)C2)nc1` (stereo not drawn) [Example 40, 5-[(5-Cyanopyridin-2-yl)amino]-3-methyl-N-(6-{[1-(2,2,2-trifluoroethyl)piperidin-3-yl]oxy}pyridin-3-yl)-1,2-thiazole-4-carboxamide], the IC50 in the assay with HeLa-MaTu-ADR stood at 320 nM; in the assay with B16F10, 780 nM; in the assay on DU145, 660 nM; in the assay on NCI-H460, 360 nM; in the assay with Caco-2, 500 nM.

In the case of `Cc1nsc(Nc2cnc3ccccc3n2)c1C(=O)Nc1cccc(C(=O)OC(C)(C)C)c1` [Example 49, tert-Butyl 3-({[3-methyl-5-(quinoxalin-2-ylamino)-1,2-thiazol-4-yl]carbonyl}amino)-benzoate], the IC50 in the assay on HeLa-MaTu-ADR was 590 nM; in the assay on B16F10, 910 nM; in the assay on DU145 it was 1100 nM; with NCI-H460, 460 nM; in the assay with Caco-2 it was 650 nM.
